Data from patent US20130143869A1, “USE OF A CATIONIC AMPHIPHILIC DRUG FOR THE PREPARATION OF A FORMULATION FOR THE REDUCTION OF SUBCUTANEOUS ADIPOSE TISSUE” (Merz Pharma GmbH & CO. KGaA, priority 2010, published 2013).

Columns and labels:
[1] = system: human adipocyte cells; test: Cytotoxicity assay: metabolic activity (resazurin conversion) of human adipocytes; format: cell-based; conditions: read-out: IC50 (metabolic activity after 48 hrs); Example 1, 48 hrs exposure, resazurin
Method: (§1) HWP were obtained in passage two and differentiated in vitro to mature adipocytes. Briefly, cells were initially cultured in preadipocyte growth medium at 37° C. and 5% CO2 to 70-80% confluency. Then, cells were seeded at 40,000 cells/ml into 96-well flat bottom tissue culture plates and incubated overnight to allow attachment. Differentiation was initiated by changing the medium to preadipopcyte differentiation medium for an additional 72 hrs. After differentiation was induced, the medium was replaced by adipocyte nutrition medium that was refreshed every 2-3 days over a period of 14 days until termination of differentiation. Differentiation status was checked via nile red staining of control cells.
(§2) The test items 1 to 8 were prepared according to Table 1 to yield respective stock solutions. Said stock solutions were further diluted in assay media to obtain the double concentrated working solutions, which were subsequently diluted 1:2 in the final assay. […] Deoxycholate Na was selected as “reference compound”.
(§3) For the cytotoxicity assays in this study pre-adipocytes were seeded at 40,000 cells/ml into a 96-well microtiter flat bottom plate. The test items were prepared in separate plates starting with the double concentrated maximal test concentration followed by a 1:2 serial dilution (Chloroquine and Fluoxetine 1:3) and then added to the cells. The test items were tested at 6 replicates/concentration. Each plate included negative controls (media plus solvent, 6 replicates), a drug interference control (all concentrations, duplicates), a background control (14 replicates), a positive (=cytotoxic) control (6 replicates doxorubicin, 1 μM final) and a positive control for maximal LDH-release (2 replicates, 2% Triton-x 100 final).
(§4) Relative cell viability was determined after 48 hrs exposure based on metabolic activity (i.e. resazurin conversion). Using a Victor^3 1420 Multilabel Counter, the resazurin conversion to the fluorescent resorufin by metabolically active cells was recorded at 560Ex/590Em. Membrane integrity was measured after 6 hrs and 48 hrs and the enzymatic activity of released LDH in the cell supernatant after 30 min of incubation at 492 nmabsorption/690 nmreference by a spectrophotometer. The volume withdrawn from the cultures for the LDH-assay was not replaced to keep cells in a less disturbed environment. The assay was conducted in a multiplexed format.
In order to derive meaningful IC50 values from the primary data, the entire biological window of activity ranging from 0% to 100% viability should be covered and the resolution has to be sufficient. To improve data quality, the serial dilution factor used in previous experiments was reduced to a 1:2 and 1:3 dilution. […] IC50 (half maximal inhibitory concentration, calculated via Sigma Plot 10) values were determined for each test substance 1 to 8.
(§5) The effects on cytotoxicity in human adipocyte cells of a further 9 compounds were tested. The experimental set-up was identical to the one in example 1.

[2] = system: human adipocyte cells; test: Membrane integrity: LDH release from human adipocytes (LDH assay); format: cell-based; conditions: Example 1, 48 hrs, relative to Triton-x 100 maximal LDH release
Method: as §1, §3, §4
For the dose-response relationship, absolute absorption (OD treated wells−background) was plotted against the test item concentrations representing LDH leakage from the cells. For a better estimation of the test items' potential influencing the membrane integrity, relative, maximal LDH release in percent (see Table 2) was also calculated according to the following formula: […]
as §5

[3] = system: Human white adipocytes; test: Apoptosis/necrosis detection, Annexin V-FITC/PI flow cytometry; format: cell-based
Source text: The apoptotic program is characterized by certain morphologic features. Loss of plasma membrane asymmetry is a well established indicator for apoptotic cells. In apoptotic cells, the membrane phospholipid phosphatidylserine (PS) is translocated from the inner to the outer leaflet of the plasma membrane, thereby exposing PS to the external environment. In general, this PS translocation is preceded by caspase activation. Annexin V labelled with FITC is a Ca^2+ dependent phospholipid-binding protein with high affinity for PS and binds to cells with externalized PS. Cells stained with Annexin V*FITC are therefore considered in an early apoptotic stage.
Staining with Annexin V-FITC is typically used in conjunction with a vital dye such as propidium iodide (PI) to allow discrimination between early apoptotic and necrotic cells. Necrotic dying cells are PI positive only. Cells that are viable are Annexin V and PI negative; cells that entered apoptosis are Annexin V positive and PI negative and cells that are in post apoptotic and/or necrotic phase are both Annexin V and PI positive.
Human white adipocytes that had been differentiated in vitro from pre-adipocytes as describe above were used. Measurements were performed after 5 hrs to catch early apoptotic/necrotic events and after 24 hrs and 48 hrs for later stages. Naringenin at 500 μM (reported to induce apoptosis in adipocytes) was used as positive control and media plus solvent was used as negative control. Each compound was tested in three different concentrations. […] Two more concentrations, one below and one above the IC50 were added.
Flow cytometry was performed with a dual laser FC500. After completion of the staining procedure, tubes were grouped into a FC500 carousel for semi-automated data acquisition. Cells were first acquired in “Setup” mode to tune the parameters FS, SS, FL1 and FL2. After completion of the setup, baseline compensation was switched on and cells were acquired. Cells were acquired without life-gate but using FS threshold to exclude debris. All cells were acquired using individually corrected settings.
After completion of data acquisition, analysis was done using the CXP software. If necessary, software-based post acquisition compensation was performed to fine-correct for fluorescence overlap not adjusted for during the acquisition phase. Quadrant markers were set based on the negative controls.

[4] = Precipitation of test item in cytotoxicity assay media; format: physicochemical; conditions: above 500 μM
Method: as §2

CC(=O)N1CCN(c2ccc(OCC3COC(Cn4ccnc4)(c4ccc(Cl)cc4Cl)O3)cc2)CC1 (centres unmarked) [Test substance 5, Ketoconazole]
IC50 [1]: 78 µM
Rel. max. LDH release [%] 48 hrs [2]: 92.2%
primary mode of cell death [3]: Apoptosis can be considered primary mode of cell death at the lower concentration range with necrosis taking place later at higher concentrations
Early Apoptosis [A-V*/PI*] ([3]; 60 μM, 5 hrs): 26.5
Necrosis/ Late Apoptosis [A-V*/PI*] ([3]; 60 μM, 5 hrs): 1.4
Normal [A-V*/PI] ([3]; 60 μM, 5 hrs): 72.1
Early Apoptosis [A-V*/PI*] ([3]; 60 μM, 24 hrs): 19.5
Necrosis/ Late Apoptosis [A-V*/PI*] ([3]; 60 μM, 24 hrs): 2.6
Normal [A-V*/PI] ([3]; 60 μM, 24 hrs): 77.9
Early Apoptosis [A-V*/PI*] ([3]; 60 μM, 48 hrs): 9.1
Necrosis/ Late Apoptosis [A-V*/PI*] ([3]; 60 μM, 48 hrs): 3.8
Normal [A-V*/PI] ([3]; 60 μM, 48 hrs): 87.1
Early Apoptosis [A-V*/PI*] ([3]; 80 μM, 5 hrs): 34
Necrosis/ Late Apoptosis [A-V*/PI*] ([3]; 80 μM, 5 hrs): 2.2
Normal [A-V*/PI] ([3]; 80 μM, 5 hrs): 63.8
Early Apoptosis [A-V*/PI*] ([3]; 80 μM, 24 hrs): 22.7
Necrosis/ Late Apoptosis [A-V*/PI*] ([3]; 80 μM, 24 hrs): 17.9
Normal [A-V*/PI] ([3]; 80 μM, 24 hrs): 59.4
Early Apoptosis [A-V*/PI*] ([3]; 80 μM, 48 hrs): 18.5
Necrosis/ Late Apoptosis [A-V*/PI*] ([3]; 80 μM, 48 hrs): 44.9
Normal [A-V*/PI] ([3]; 80 μM, 48 hrs): 36.6
Early Apoptosis [A-V*/PI*] ([3]; 100 μM, 5 hrs): 23.6
Necrosis/ Late Apoptosis [A-V*/PI*] ([3]; 100 μM, 5 hrs): 3.1
Normal [A-V*/PI] ([3]; 100 μM, 5 hrs): 73.3
Early Apoptosis [A-V*/PI*] ([3]; 100 μM, 24 hrs): 16.9
Necrosis/ Late Apoptosis [A-V*/PI*] ([3]; 100 μM, 24 hrs): 82.6
Normal [A-V*/PI] ([3]; 100 μM, 24 hrs): 0.5
Early Apoptosis [A-V*/PI*] ([3]; 100 μM, 48 hrs): 36.9
Necrosis/ Late Apoptosis [A-V*/PI*] ([3]; 100 μM, 48 hrs): 52.5
Normal [A-V*/PI] ([3]; 100 μM, 48 hrs): 0.5
apoptosis/necrosis induction in human adipocytes (in words) ([3]; 5, 24, 48 hrs, concentrations as in Table 4): caused apoptosis after 5 hrs at 60, 80, and 100 μM increasing over time
precipitation in assay media [4]: generation of insoluble precipitates at higher concentrations
